What was measured:
[1] = target: full-length human PDI (Homo sapiens, UniProt P07237); test: Insulin reduction assay; type: biochemical; details: compound 100 μM, 1.5 μM protein, last read (100 min); PDI alone 1.125
Procedure: (§1) The insulin reduction assay was performed to assess the enzymatic activity of PDI and its MBP-fused recombinant proteins. PDI can reduce insulin in the presence of dithiothreitol (DTT) along with increase in turbidity of the reaction mixture. We thus monitored spectrophotometrically the aggregation of reduced insulin through the increase of turbidity. The reductase activity was measured in 100 μL in presence of 600 μM insulin, 1.5 μM PDI and recombinant PDI proteins, 1 mM DTT, and with protein buffer (pH 7.4), at room temperature over 100 min by absorption at 650 nm. For inhibition assay, 100 μM of rutin, kaempferitrin, tiliroside and 2′-O-galloylhyperin or control buffer was added to the reaction system.

[2] = target: T1, murine MBP-mPDI-b′xa′ (Mus musculus, UniProt P09103); test: Insulin reduction assay; type: biochemical; details: rutin 100 μM, last read (100 min); MBP-mPDI-b′xa′ alone 0.832
T1 construct: MBP-mPDI-b′xa′ (236–477); His-tag; made in house; host or cells: E. coli BL21 (DE3)
Procedure: as §1

[3] = test system: thioredoxin; set-up: method as in PMID 22565308; details: cited from earlier work
[4] = test system: ERp72; set-up: method as in PMID 22565308; details: cited from earlier work
[5] = test system: ERp57; set-up: method as in PMID 22565308; details: cited from earlier work
[6] = target: T2, MBP-PDI-b′xa′ L355R (Homo sapiens, UniProt P07237, L355R); test: Insulin reduction assay; type: biochemical; details: rutin 100 μM
T2 construct: MBP-PDI-b′xa′(235–479); His-tag; made in house; host or cells: E. coli BL21 (DE3)
Procedure: as §1
(§2) We further used the insulin reduction assay to measure the reductase activities of these site-directed MBP-PDI-b′xa′ mutants. This assay has typically good reproducibility as shown by a control experiment with three repetitions (Fig. S7 ^†). We found the PDI mutants maintained reductase activities in the presence of dithiothreitol (DTT). The H354A mutation lowered the reductase activity of wt MBP-PDI-b′xa′ (Fig. 3G) while other mutants had similar reductase activities with that of wt MBP-PDI-b′xa′ (Fig. 3C, F and H–J). Addition of rutin inhibited the reductase activities of both wt MBP-PDI-b′xa′ and the mutants (Fig. 3C and F–J). […] We quantified the inhibition of rutin on these MBP-PDI-b′xa′ mutants by measuring the increase of turbidity (OD650 at 100 min) upon addition of rutin (Fig. 3K).

[7] = target: T3, wt MBP-PDI-b′xa′ (Homo sapiens, UniProt P07237); test: Insulin reduction assay; type: biochemical
T3 construct: MBP-PDI-b′xa′(235–479); His-tag; made in house; host or cells: E. coli BL21 (DE3)
Procedure: as §1, §2

[8] = target: T4, MBP-PDI-b′xa′ K328E (Homo sapiens, UniProt P07237, K328E); test: Insulin reduction assay; type: biochemical; details: rutin 100 μM
T4 construct: MBP-PDI-b′xa′(235–479); His-tag; made in house; host or cells: E. coli BL21 (DE3)
Procedure: as §1, §2

[9] = target: T5, MBP-PDI-b′xa′ E359A (Homo sapiens, UniProt P07237, E359A); test: Insulin reduction assay; type: biochemical; details: rutin 100 μM
T5 construct: MBP-PDI-b′xa′(235–479); His-tag; made in house; host or cells: E. coli BL21 (DE3)
Procedure: as §1, §2

[10] = target: T6, MBP-PDI-b′xa′ E359K (Homo sapiens, UniProt P07237, E359K); test: Insulin reduction assay; type: biochemical; details: rutin 100 μM
T6 construct: MBP-PDI-b′xa′(235–479); His-tag; made in house; host or cells: E. coli BL21 (DE3)
Procedure: as §1, §2

[11] = target: T7, MBP-PDI-b′xa′ H354A (Homo sapiens, UniProt P07237, H354A); test: Insulin reduction assay; type: biochemical; details: rutin 100 μM
T7 construct: MBP-PDI-b′xa′(235–479); His-tag; made in house; host or cells: E. coli BL21 (DE3)
Procedure: as §1, §2

[12] = test system: MBP (MBP-PNGase, MBP-SpoIVB, MBP-MOC1); test: Fluorescence measurement with MBP-fusion control proteins; type: binding; details: rutin 55 μM, MBP-fusion proteins 18 μM, excitation 430 nm
Procedure: The relevant recombinant proteins were incubated with rutin in black 384-well plate at room temperature for 30 min before measurements. The concentrations of proteins were always kept at 18 μM and rutin was 55 μM. The total assay volume was filled to 100 μL using the protein buffer (pH 7.4). The fluorescence emission spectrum of every mixture were measured with the excitation at 430 nm and the emission at 460 nm at room temperature on a BioTek Synergy microplate reader with a sensitivity of 100 or 120 and measurements of per data with 100 times. […]
presence of three different MBP-fusion proteins. The MBP-fusion proteins (MBP-PNGase protein (gray dash-dot line), MBP-SpoIVB protein (gray dash line) and MBP-MOC1 protein […]
at 430 nm. Addition of rutin (55 μМ) to these proteins (MBP-PNGase in black solid line, MBP-SpoIVB in black dash line and MBP-MOC1 in black dot line) gave the signals almost identical to rutin itself (gray solid), which has a maximum fluorescence at 550 nm.
(1 picture or pasted object on this page, not shown here)

[13] = test system: ERp5; set-up: method as in PMID 22565308; details: cited from earlier work

T2 sequence (P07237 235-479 L355R): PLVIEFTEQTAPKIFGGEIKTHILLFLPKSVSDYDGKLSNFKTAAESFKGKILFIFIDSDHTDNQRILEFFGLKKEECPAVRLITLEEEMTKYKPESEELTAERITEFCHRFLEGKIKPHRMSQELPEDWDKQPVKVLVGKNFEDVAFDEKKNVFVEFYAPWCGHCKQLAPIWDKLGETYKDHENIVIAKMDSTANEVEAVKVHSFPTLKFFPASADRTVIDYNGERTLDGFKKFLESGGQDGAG
T6 sequence (P07237 235-479 E359K): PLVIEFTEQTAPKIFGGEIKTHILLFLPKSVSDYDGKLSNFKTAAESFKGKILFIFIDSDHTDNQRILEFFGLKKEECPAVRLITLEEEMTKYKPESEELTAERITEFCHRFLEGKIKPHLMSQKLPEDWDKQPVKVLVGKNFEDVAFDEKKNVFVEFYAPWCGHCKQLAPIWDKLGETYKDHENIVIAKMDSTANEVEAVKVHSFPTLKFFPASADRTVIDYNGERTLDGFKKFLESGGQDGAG
T5 sequence (P07237 235-479 E359A): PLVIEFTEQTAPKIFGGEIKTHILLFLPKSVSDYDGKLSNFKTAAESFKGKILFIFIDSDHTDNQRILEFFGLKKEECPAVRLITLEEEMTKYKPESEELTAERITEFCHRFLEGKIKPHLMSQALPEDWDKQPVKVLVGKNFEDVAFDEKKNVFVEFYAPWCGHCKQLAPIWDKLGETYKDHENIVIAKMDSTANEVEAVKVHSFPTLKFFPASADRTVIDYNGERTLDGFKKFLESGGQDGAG
T3 sequence (P07237 235-479): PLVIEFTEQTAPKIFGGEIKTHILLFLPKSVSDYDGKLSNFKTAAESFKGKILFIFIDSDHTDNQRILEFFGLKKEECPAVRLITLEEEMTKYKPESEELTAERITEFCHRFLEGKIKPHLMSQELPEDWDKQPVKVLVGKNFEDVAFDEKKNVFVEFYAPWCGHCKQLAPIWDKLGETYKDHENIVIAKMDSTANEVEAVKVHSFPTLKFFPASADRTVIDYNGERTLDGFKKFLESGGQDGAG
T7 sequence (P07237 235-479 H354A): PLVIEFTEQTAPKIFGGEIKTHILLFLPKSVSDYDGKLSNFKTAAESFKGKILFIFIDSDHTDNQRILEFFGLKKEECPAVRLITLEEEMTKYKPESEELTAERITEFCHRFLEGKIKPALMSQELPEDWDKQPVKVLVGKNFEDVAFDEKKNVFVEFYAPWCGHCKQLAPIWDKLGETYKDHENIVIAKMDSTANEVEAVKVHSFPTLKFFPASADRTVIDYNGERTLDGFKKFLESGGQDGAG
T4 sequence (P07237 235-479 K328E): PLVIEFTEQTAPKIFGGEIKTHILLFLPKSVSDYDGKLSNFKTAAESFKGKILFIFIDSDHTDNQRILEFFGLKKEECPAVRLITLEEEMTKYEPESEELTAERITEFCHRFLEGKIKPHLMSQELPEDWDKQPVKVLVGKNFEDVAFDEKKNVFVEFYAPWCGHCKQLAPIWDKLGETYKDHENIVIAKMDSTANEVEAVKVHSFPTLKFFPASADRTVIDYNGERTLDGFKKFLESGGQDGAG
T1 sequence (P09103 236-477): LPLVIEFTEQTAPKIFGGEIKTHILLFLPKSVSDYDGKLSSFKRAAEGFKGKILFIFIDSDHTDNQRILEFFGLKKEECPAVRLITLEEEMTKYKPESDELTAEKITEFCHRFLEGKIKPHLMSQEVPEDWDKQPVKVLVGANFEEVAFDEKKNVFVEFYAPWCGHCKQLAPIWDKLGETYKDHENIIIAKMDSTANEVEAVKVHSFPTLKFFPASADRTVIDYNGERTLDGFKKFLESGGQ
full-length human PDI, sequence (P07237 18-508): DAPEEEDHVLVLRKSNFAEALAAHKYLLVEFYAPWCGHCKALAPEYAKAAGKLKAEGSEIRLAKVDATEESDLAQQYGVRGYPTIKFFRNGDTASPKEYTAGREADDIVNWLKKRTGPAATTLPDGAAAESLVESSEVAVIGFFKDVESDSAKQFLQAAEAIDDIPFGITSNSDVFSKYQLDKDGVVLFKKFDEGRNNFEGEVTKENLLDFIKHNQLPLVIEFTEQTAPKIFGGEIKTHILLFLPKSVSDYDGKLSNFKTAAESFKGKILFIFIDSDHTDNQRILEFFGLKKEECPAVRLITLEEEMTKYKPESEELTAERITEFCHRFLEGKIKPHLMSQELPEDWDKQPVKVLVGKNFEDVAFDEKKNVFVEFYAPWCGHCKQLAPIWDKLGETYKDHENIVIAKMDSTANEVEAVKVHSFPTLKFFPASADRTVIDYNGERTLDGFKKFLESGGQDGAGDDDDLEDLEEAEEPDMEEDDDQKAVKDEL

## C[C@@H]1O[C@@H](OC[C@H]2O[C@@H](Oc3c(-c4ccc(O)c(O)c4)oc4cc(O)cc(O)c4c3=O)[C@H](O)[C@@H](O)[C@@H]2O)[C@H](O)[C@H](O)[C@H]1O [rutin]
[1]
  turbidity (OD650), raw kinetic read at 1:40:32: 0.924
[2]
  turbidity (OD650), raw kinetic read at 1:40:32: 0.583
[3]
  inhibition of thioredoxin: did not inhibit
[4]
  inhibition of ERp72: did not inhibit
[5]
  inhibition of ERp57: did not inhibit
[6]; L355R
  decrease of inhibitory efficiency compared with wt MBP-PDI-b′xa′: modest decrease
[6]; increase of turbidity (OD650) at 100 min, L355R, read-out: Inhibitory efficiency (%)
  inhibition at 100 µM: 98.4%
[6]; last read (100 min), L355R alone 0.819
  turbidity (OD650), raw kinetic read at 1:40:32: 0.424
[7]; compound 100 μM, 1.5 μM protein, last read (100 min), WT alone 0.829
  turbidity (OD650), raw kinetic read at 1:40:32: 0.585
[7]; rutin 100 μM, increase of turbidity (OD650) at 100 min, wt, read-out: Inhibitory efficiency (%)
  inhibition at 100 µM: 100%
[8]; increase of turbidity (OD650) at 100 min, K328E, read-out: Inhibitory efficiency (%)
  inhibition at 100 µM: 99%
[8]; last read (100 min), K328E alone 0.777
  turbidity (OD650), raw kinetic read at 1:40:32: 0.4
[9]; increase of turbidity (OD650) at 100 min, E359A, read-out: Inhibitory efficiency (%)
  inhibition at 100 µM: 86%
[9]; last read (100 min), E359A alone 0.711
  turbidity (OD650), raw kinetic read at 1:40:32: 0.416
[10]; increase of turbidity (OD650) at 100 min, E359K, read-out: Inhibitory efficiency (%)
  inhibition at 100 µM: 88.8%
[10]; last read (100 min), E359K alone 0.698
  turbidity (OD650), raw kinetic read at 1:40:32: 0.4
[11]; increase of turbidity (OD650) at 100 min, H354A, read-out: Inhibitory efficiency (%)
  inhibition at 100 µM: 82.9%
[11]; last read (100 min), H354A alone 0.585
  turbidity (OD650), raw kinetic read at 1:40:32: 0.35
[12]
  binding to MBP: does not bind
[13]
  inhibition of ERp5: did not inhibit

— publication PMC9080521, “Molecular basis of rutin inhibition of protein disulfide isomerase (PDI) by combined in silico and experimental methods” (RSC Advances, 2018)
